Laboratory results reported in patent US4496591A, “Insecticidal bis-carbamate sulfides” (priority 1981, dated 1985).

Experiments:
Type in all cases: in vivo
[1] = system: housefly adults (Musca domestica); assay: Comparative residual effect in soil
Procedure: Selected species of the new compounds were evaluated for their residual pesticidal activity in soil. […] The residual activity test were conducted using five to seven-day old housefly adults (Musca domestica).
The soil mixture used was one part agricultural soil and three parts sand. The agricultural soil was stored in plastic bags in a freezer, immediately after removal from the field. This was done to reduce microbial multiplication. Two weeks prior to use, the soil was thawed and held at room temperature to allow microbial population to equilibrate. The sand and soil were sifted to remove clumps and debris and were then blended by rolling on a roller mill in a closed metal container. The moisture level was adjusted to 15% by weight.
The concentration in the soil of the compound to be tested was four times the amount (in parts per million) necessary to achieve a mortality rate of 50% on contact with the soil (LD50). This is in accordance with the procedure developed by C. R. Harris of the Research Institute, Canadian Department of Agriculture, London, Ontario. Such procedure is disclosed in "Biological Activity of Chloropyrifos, Chlorpyrifor-Methyl, Phorate, and Counter® in Soil", The Canadian Entomologist, Vol. 109, pp. 1115-1120 (August 1977); and in "Laboratory Studies on the Persistance of Biological Activity of Some Insecticides in Soils", Journal of Economic Entomology, Vol. 62, No. 6, pp. 1437-1441 (December 1969).
An appropriate amount of compound was dissolved in an acetone--Triton solution and was diluted with water. Five mililiters of the formulated chemical was applied to four ounces of soil mixture and rolled in a 16-ounce glass jar to blend the compound evenly with the soil. Ten mililiters of granular cane sugar was then mixed thoroughly with the treated soil in an eight-ounce plastic container.
Twenty-five housefly adults, anesthetized with CO2, were then transferred to the soil and were covered with a perforated plastic lid. The test containers were held for 24 hours in a constant environment at a temperature of 80±5° F. and a relative humidity of […]. Mortality was based on the ability of the fly to move in a normal manner without spinning.
The above process was repeated on treated soil which had been incubated at 25° C. and 90% relative humidity for 1, 4, 6 and 8 weeks after initial exposure. This was necessary because the soil is incubated without sugar, sugar being added at the time of reinfestation. For this reason, appropriate volumes of soil had to be treated at the start of the soil test to last for the expected residual period.

[2] = system: southern armyworm (Spodoptera eridania, (Cram.)) larvae; assay: Southern armyworm leaf spray bait test; parameters: key: A: excellent control; B: partial control; C: no control at 500 ppm; settings: 500 parts per million, three days
Procedure: (§1) Suspensions of the test compounds were prepared by dissolving one gram of compound in 50 milliliters of acetone in which had been dissolved 0.1 gram (10 percent of the weight of compound) of an alkylphenoxy polyethoxyethanol surfactant, as an emulsifying or dispersing agent. The resulting solution was mixed into 150 milliliters of water to give roughly 200 milliliters of a suspension containing the compound in finely divided form. The thus-prepared stock suspension contained 0.5 percent by weight of compound. The concentrations in parts per million by weight employed in the tests described hereinbelow were obtained by appropriate dilutions of the stock suspension with water. The test procedures were as follows:
Larvae of the southern armyworm (Spodoptera eridania, (Cram.)), reared on Tendergreen bean plants at a temperature of 80±5° F. and a reative humidity of 50±5 percent, constituted the test insects.
The test compounds were formulated by diluting the stock suspension with water to give a suspension containing 500 parts of test compound per million parts of final formulation. Potted Tendergreen bean plants of standard height and age were placed on a revolving turntable and sprayed with 100-110 milliliters of test compound formulation by use of a DeVilbiss spray gun set at 40 psig air pressure. This application, which lasted 25 seconds, was sufficient to wet the plants to run-off. As a control, 100-110 milliliters of a water-acetone-emulsifier solution containing no test compound were also sprayed on infested plants. When dry, the paired leaves were separated and each one was placed in a 9 centimeter Petri dish lines with moistened filter paper. Five randomly selected larvae were introduced into each dish and the dishes were closed. The closed dishes were labeled and held at 80°-85° F. for three days. Although the larvae could easily consume the whole leaf within twenty-four hours, no more food was added. Larvae which were unable to move the length of the body, even upon stimulation by prodding, were considered dead.
(§2) In these tests the pesticidal activity of the compounds at the indicated dosage rate against aphid, Southern Armyworm, Bean Beetle and housefly was rated as follows: […]

[3] = system: bean aphid (Aphis fabae Scop.); assay: Bean aphid foliage spray test; parameters: key: A: excellent control; B: partial control; C: no control at 500 ppm; settings: 500 parts per million, 24 hour
Procedure: as §1
Adults and nymphal stages of the bean aphid (Aphis fabae Scop.) reared on potted dwarf nasturtium plants at 68°-70° F. and 50±5 percent relative humidity, constituted the test insects. For testing purposes, the number of aphids per pot were standardized to 100-150 by trimming plants containing excess aphids.
The test compounds were formulated by diluting the stock suspension with water to give a suspension containing 500 parts of test compound per million parts of final formulation.
The potted plants (one pot per compound tested) infested with 100-150 aphids, were placed on a revolving turntable and sprayed with 100-110 milliliters of test compound formulation by use of a DeVilbiss spray gun set at 40 psig. air pressure. This application, which lasted 25 seconds, was sufficient to wet the plants to run-off. As a control, 100-110 milliliters of a water-acetone-emulsifier solution containing no test compound was also sprayed on infested plants. After spraying, the pots were placed on their sides on a sheet of white standard mimeograph paper which had been previously ruled to facilitate counting. Temperature and humidity in the test room during the 24 hour holding period were 68°-70° F. and 50±5 percent, respectively. Aphids which fell onto the paper and were unable to remain standing after being uprighted were considered dead. Aphids remaining on the plants were observed closely for movement and those which were unable to move the length of the body upon stimulation by prodding were considered dead.
as §2

[4] = system: house flies (Musca domestica, L.); assay: Fly bait test; parameters: key: A: excellent control; B: partial control; C: no control at 500 ppm; settings: 500 parts per million, sugar bait, twenty-four hours
Procedure: as §1
Four to six day old adult house flies (Musca domestica, L.), reared according to the specifications of the Chemical Specialties Manufacturing Association (Blue Book, McNair-Dorland Co., N.Y. 1954; pages 243-244, 261) under controlled conditions of 80±5° F. and 50±5 percent relative humidity, were the test insects. The flies were immobilized by anesthetizing them with carbon dioxide. Twenty-five immobilized individuals, males and females, were transferred to a cage consisting of a standard food strainer about five inches in diameter which was inverted over a wrapping-paper-covered surface. The test compounds were formulated by diluting the stock suspension with a 10 percent (by weight) sugar solution to give a suspension containing 500 parts of test compound per million parts of final formulation, by weight. Ten milliliters of the test formulation were added to a souffle cup containing a one-inch square of an absorbent cotton pad. This bait cup was introduced and centered on the blotting paper under the food strainer prior to admitting the anesthetized flies. The caged flies were allowed to feed on the bait for twenty-four hours, at a temperature of 80±5° F. and at a relative humidity of 50±5 percent.
as §2

With `CSC(C)=NOC(=O)N(C)SN(C)C(=O)Oc1cccc(C=O)c1` [Compound 3] the “Residual effect in soil (mortality), 0 weeks” value ([1]; 0 weeks, soil concentration four times LD50, housefly, 24 hours) was 100, the “Residual effect in soil (mortality), 1 week” value ([1]; 1 week, soil concentration four times LD50, 25° C., 90% relative humidity, 10080 min) was 100 and the “Residual effect in soil (mortality), 4 weeks” value ([1]; 4 weeks, soil concentration four times LD50, 25° C., 90% relative humidity, 40320 min) was 73. The “Residual effect in soil (mortality), 8 weeks” value ([1]; 8 weeks, soil concentration four times LD50, 25° C., 90% relative humidity, 80640 min) was 40, the “Residual Activity (weeks)” value ([1]; soil concentration four times LD50, housefly) was 4-8 weeks and the “Southern Armyworm, pesticidal activity rating” value [2] was “A”. For the same molecule, the “Aphids, pesticidal activity rating” value [3] was “A” and the “Housefly, pesticidal activity rating” value [4] was “A”.
